Results from patent publication US10537583B2, “Oral formulation of A-nor-5α androstane compound” (priority 2014, dated 2020).
Read-outs that look alike come from different tables or passages of the source.

Assays:
[1] = system: Caco-2 cells
Procedure: The qualified Transwell plate was taken. The nutrient solution comprising drugs was prepared by using Hank's balanced salt solution (HBSS) to study the bidirectional transfer of A-nor-5α-androstane compounds (Ia) with different concentrations in Caco-2 cells.

[2] = for Ka (absorption rate constant) / P (cumulative absorption percentage) / Q (absorption dose in 2 hours): n = 3
Procedure: A suitable concentration of intestinal circulating liquid comprising A-nor-5α-androstane compounds (Ia) was prepared by using PBS (pH 5.5 and pH 6.8) containing phenol red. Rats were fasting over 12 hours before the experiment and then subjected to intraperitoneal injection with urethane solution (dose 4 mL/kg) at a concentration of 0.3 g/ml for anesthesia. The rats were fixed and a 3 cm incision was made along the medioventral line. The duodenum (start from 1 cm below the pyloru, intestinal circulating fluid comprising A-nor-5α androstane compound, pH 5.5), the jejunum (start from […], intestinal circulating fluid comprising A-nor-5α androstane compound, pH 6.8), and the ileum (start from 30 cm below the pylorus, intestinal circulating fluid comprising A-nor-5α androstane compound, pH 6.8) were incubated and ligated. Preheated saline (37° C.) was used to clean the intestinal contents, and then the air (37° C.) was ventilated into the intestine to remove the saline. The wound was covered with dressing, and infrared lamp was used to keep warm (37° C.). The reflux device was connected and after 50 ml of drug-containing circulating fluid at a constant temperature of 37° C. was balanced at 3 mL/min for 5 min, timing was started when the flow rate was adjusted to 1 mL/ml. Samples (1 mL for each) were taken at 0, 15, 30, 45, 60, 90, and 120 min, while adding blank circulating fluid (1 mL). The sample was subjected to HPLC analysis after appropriate treatment. The volume of circulating fluid was corrected according to the concentration of phenol red. Then the remained amounts of drug X were calculated by the concentration of A-nor-5α androstane compounds and the volume of circulating fluid. Line slope is the absorption rate constant (Ka) of a drug. The cumulative absorption percentage (P) of the drug is obtained by comparing the absorption dose (Q) of a drug in 2 hours to the initial dose (X0) before absorption.

[3] = Source text: It mainly relies on passive diffusion mechanism for transport, uptake and absorb in the body and the uptake amounts are dependent on the time and dose. A-nor-5α-androstane compound can be administered by oral pathway. […] Therefore, an oral formulation, such as ordinary oral tablet, oral capsule and other sustained-release preparation, is designed according to the present invention.
[4] = 37° C., 72 hours, n = 3
Procedure: Phosphate buffer solution (PBS) with different pH was prepared (pH is 1.0, 5.0, 5.5, 5.8, 6.0, 6.8 and 7.4). The equilibrium solubility of A-nor-5α androstane compounds (Ia) in PBS with different pH was determined by using Equilibrium Method. Method: 5 mL of each medium was removed into test tubes with plug and about 30 mg of crude drugs comprising A-nor-5α androstane compounds were added into the tubes respectively. The tubes were subjected to a thermostatic oscillator (37° C.) and vibrated at 100 rpm. After 72 hours, the sample was taken and subjected to HPLC analysis.

[5] = system: Caco-2 cells; remark: listed apart in the source
Procedure: Caco-2 cells were spotted on a six-well plate. When the cells were grown to an inoculation density of 8×10^4 cells/mL, the cells were cultured with the drug-containing medium. The relationship between cells uptake and uptake time, the concentration of A-nor-5α-androstane compound (Ia) were examined. After the experiment was completed, the cells were scraped off and the cells were broken by multiple freezing-thawing. The samples of the cells were precipitated by acetonitrile and then subjected to HPLC analysis.

[6] = Beagle dogs, 1.0 mg/kg by gastric gavage
[7] = n-octanol, 37° C., n = 3
Procedure: PBS with different pH was prepared, and oil-water partition coefficient of A-nor-5α androstane compound (Ia) in a buffer solution with different pH (e.g., 2.0, 4.5, 5.0, 6.0, 6.8, 7.4, respectively) was determined by shake-flask method. Water-saturated n-octanol was used to prepare a stock solution of A-nor-5α androstane compound, concentration of which was about 10 mg/mL. A variety of n-octanol-saturated PBS and aqueous solution (5 ml) was taken and added into glass tubes with plug. 0.5 mL of stock solution of A-nor-5α-androstane compound was added. The tubes were sealed completely and subjected to a 37° C. thermostatic oscillator, and sampled after shaking for 24 h. Samples from water phase and oil phase were taken for analysis by HPLC, respectively. The drug concentrations in water and oil phase were calculated. According to […], oil-water partition coefficient (Log P) was calculated and the results are shown in Table 2.

[8] = rat duodenum, circulating fluid pH 5.5
[9] = rat ileum, circulating fluid pH 6.8
[10] = rat jejunum, circulating fluid pH 6.8
[11] = rat jejunum, concentration 25.0 μg/mL
[12] = rat jejunum, concentration 50.0 μg/mL
[13] = rat jejunum, concentration 100.0 μg/mL

Structure (SMILES): C#C[C@@]1(O)C[C@@H]2CC[C@@H]3[C@H](CC[C@@]4(C)[C@H]3CC[C@@]4(O)C#C)[C@@]2(C)C1 [Ia, 2α, 17α-diethynyl-A-nor-5α-androstane-2β, 17β-dihydroxy compound]
- apparent permeability coefficient (Papp) ([1]; all Papps under various conditions): > 1 ×10⁻⁶ cm/s
- ER (efflux rate) ([1]; concentration 0.5 mg/mL): 1.94
- Papp A-B ([1]; concentration 0.5 mg/mL): 2.59 ± 0.17 ×10^−6 cm/s
- Papp B-A ([1]; concentration 0.5 mg/mL): 5.02 ± 0.50 ×10^−6 cm/s
- ER (efflux rate) ([1]; concentration 0.75 mg/mL): 1.62
- Papp A-B ([1]; concentration 0.75 mg/mL): 4.00 ± 0.15 ×10^−6 cm/s
- Papp B-A ([1]; concentration 0.75 mg/mL): 6.46 ± 0.71 ×10^−6 cm/s
- ER (efflux rate) ([1]; concentration 1.0 mg/mL): 1.82
- Papp A-B ([1]; concentration 1.0 mg/mL): 4.98 ± 0.16 ×10^−6 cm/s
- Papp B-A ([1]; concentration 1.0 mg/mL): 9.07 ± 0.35 ×10^−6 cm/s
- Ka (absorption rate constant) [2, 8]: 4.27 ± 1.53 ×10^−3 min
- P (cumulative absorption percentage) [2, 8]: 45.48 ± 9.33%
- Q (absorption dose in 2 hours) [2, 8]: 324.42 ± 65.21 μg/2 h
- Ka (absorption rate constant) [2, 9]: 7.57 ± 2.56 ×10^−3 min
- P (cumulative absorption percentage) [2, 9]: 65.23 ± 11.80%
- Q (absorption dose in 2 hours) [2, 9]: 1603.03 ± 289.37 μg/2 h
- Ka (absorption rate constant) [2, 10]: 9.53 ± 4.22 ×10^−3 min
- P (cumulative absorption percentage) [2, 10]: 71.68 ± 13.48%
- Q (absorption dose in 2 hours) [2, 10]: 1809.26 ± 369.52 μg/2 h
- Ka (absorption rate constant) [2, 11]: 18.87 ± 2.94 ×10^−3 min
- P (cumulative absorption percentage) [2, 11]: 90.27 ± 3.28%
- Q (absorption dose in 2 hours) [2, 11]: 1063.39 ± 75.81 μg/2 h
- Ka (absorption rate constant) [2, 12]: 9.53 ± 4.22 ×10^−3 min
- P (cumulative absorption percentage) [2, 12]: 71.68 ± 13.48%
- Q (absorption dose in 2 hours) [2, 12]: 1809.26 ± 369.52 μg/2 h
- Ka (absorption rate constant) [2, 13]: 5.50 ± 0.36 ×10^−3 min
- P (cumulative absorption percentage) [2, 13]: 53.25 ± 2.77%
- Q (absorption dose in 2 hours) [2, 13]: 2636.52 ± 137.86 μg/2 h
- relationship between absorption and concentration ([2]; rat jejunum, y=20.34x+649.7, r=0.9869): good linear relationship
- absorption percentages ([2]; rat, both jejunum and ileum): > 50%
- water dissolution rate [3]: 6.5 µg/mL
- equilibrium solubility ([4]; pH 1.0 hydrochloric acid): 7.85 ± 0.57 µg/mL
- equilibrium solubility ([4]; pH 5.0 PBS): 14.73 ± 0.80 µg/mL
- equilibrium solubility ([4]; pH 5.5 PBS): 45.73 ± 0.23 µg/mL
- equilibrium solubility ([4]; pH 5.8 PBS): 70.52 ± 1.28 µg/mL
- equilibrium solubility ([4]; pH 6.0 PBS): 144.54 ± 0.77 µg/mL
- equilibrium solubility ([4]; pH 6.8 PBS): 1388.16 ± 90.95 µg/mL
- equilibrium solubility ([4]; pH 7.4 PBS): 4507.97 ± 487.04 µg/mL
- relationship of uptake amounts with uptake time ([5]; Y=0.204x+6.107, r=0.9952): linear relationship with the uptake time
- relationship of uptake amounts with concentration ([5]; y=40.59x−10.47, r=0.9994): linear relationship with the concentration
- absolute bioavailability ([6]; based on AUC0-t of crude drug): 56.8%
- absolute bioavailability ([6]; based on AUC0-t of total main metabolites in vivo): 93.0%
- LogP ([7]; buffer pH 2.0): ∞
- LogP ([7]; buffer pH 4.5): 4.19
- LogP ([7]; buffer pH 5.0): 3.80
- LogP ([7]; buffer pH 6.0): 2.52
- LogP ([7]; buffer pH 6.8): 0.98
- LogP ([7]; buffer pH 7.4): 0.11
